Structures are written as SMILES. Where a name gives a salt, the structure may show the parent alone.

The conditions of series [1]: single and repeat intravenous administration, alone or in combination with other agents; cited from earlier work.
Series [2] is described as follows: Pharmacokinetics of orally administered squalamine (ENT-01) in Stage 1. It counts as in vivo, human. The following applies: oral dosing. The method, then:
PK data were collected on the 10 patients enrolled in Stage 1 and 10 patients enrolled in Stage 2 to determine the extent of systemic absorption. In Stage 1, PK data were obtained at each visit, pre-medication, at 1, 2, 4, 8 and 24 hours (Table 10). In Stage 2, PK was measured on days 1 and 6 of the randomization period pre-medication, at 1, 2, 4 and 8 hours (Table 11).
The mean Cmax, Tmax and T1/2 and AUC of the squalamine ion following squalamine (ENT-01) oral dosing for Stage 1 patients. The PK analyses are only approximate, as the lower limit of the validated concentration range was 10 ng/ml; most of the measured concentrations fell below that value. The mean Cmax, Tmax and T1/2 and AUC of the squalamine ion following squalamine (ENT-01) oral dosing for Stage 2 patients. The PK analyses are only approximate, as the lower limit of the validated concentration range was 0.5 ng/ml.

The conditions of series [3]: systemic administration, mice; into the duodenum through the biliary tract; cited from earlier work.
In the next series the test system is mouse models of PD. The following applies: cited from earlier work.
Series [4] relates to patients with PD and constipation. As to the kind of experiment: Phase 2 trial Stage 2: bowel function under daily oral dosing (escalation, fixed dose, wash-out). The settings on record: patients with baseline ≥1 CSBM/week. The format is in vivo, human. Here is the method:
Following successful screening, all subjects underwent a 14-day run-in period where the degree of constipation was assessed through a validated daily log (Zinsmeister et al. 2013) establishing baseline CSBMs/week. Subjects with an average of <3 CSBMs/week proceeded to dosing.
In Stage 2, 34 patients were evaluated.
The primary efficacy outcome variable was whether or not a subject was a “success” or “failure”. This is an endpoint based on subject diary entries for the “fixed dose” period prior to the endpoint assessment defined as average complete stool frequency increase by 1 or more over baseline, or 3 or more complete spontaneous stools/week. The subject was deemed a “success” if s/he met one or more of the criteria listed above, otherwise the subject was deemed a “failure”. The primary analysis was based on all subjects with a baseline assessment and an assessment at the end of the “fixed-dose” period and was a comparison of the proportion of successes with 0.10 (the null hypothesis corresponding to no treatment effect).

Series [5] deals with IPANs (intrinsic primary afferent neuron). The settings on record: perfusion through lumen of isolated bowel segment; cited from earlier work.
The test system of a further series is C. elegans model of PD. The following applies: C. elegans model; cited from earlier work.

With `CC(C)[C@@H](CC[C@@H](C)[C@H]1CC[C@H]2[C@@H]3[C@H](O)C[C@H]4C[C@@H](NCCCNCCCCN)CC[C@]4(C)[C@H]3CC[C@]12C)OS(=O)(=O)O` [squalamine dilactate salt], in series [1], the “well tolerated intravenous dose” value is given as “at least 300 mg/m^2”.
In the case of `CC(C)[C@@H](CC[C@@H](C)[C@H]1CC[C@H]2[C@@H]3[C@H](O)C[C@H]4C[C@@H](NCCCNCCCCN)CC[C@]4(C)[C@H]3CC[C@]12C)OS(=O)(=O)O` [squalamine], the systemic absorption result in series [2] is on record as “not significantly absorbed into the systemic circulation”. Besides, in series [3], the clearance and excretion entry was “cleared by the liver and excreted as the intact molecule”. The gastro-intestinal motility result with mouse models of PD (orally administered, mice with constipation due to overexpression of human αS (West et al)) is “stimulates gastro-intestinal motility”. For the same molecule, the gastrointestinal dysmotility entry in the series on mouse models of PD (several mouse models of PD) is reported as “reverse gastrointestinal dysmotility”. Also, the “mean dose required for a bowel response (prokinetic dose)” value in series [4] came to 120 mg. For the same molecule, the “effect on IPANs” value in series [5] is recorded as “excitation of IPANs”. For the same molecule, in the series on C. elegans model of PD, the muscle paralysis entry is on record as “complete reversal of muscle paralysis”.
